Data published in PubChem BioAssay (NCI).
Values joined by “and” are separate entries in the source; they are usually repeats but may differ in a detail not shown here. Equal entries are not always repeated.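 Five concentrations, 48 hours, 96-well plates. TGI: concentration producing complete growth inhibition.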

Columns and labels:
Assay in all cases: NCI tumour cell line growth inhibition, 48 h
RXF 393 renal = system: RXF 393 renal
MOLT-4 leukemia = system: MOLT-4 leukemia
OVCAR-5 ovarian = system: OVCAR-5 ovarian
HOP-18 NSCLC = system: HOP-18 NSCLC
OVCAR-4 ovarian = system: OVCAR-4 ovarian
SW-620 colon = system: SW-620 colon
A498 renal = system: A498 renal
DMS 114 small cell lung = system: DMS 114 small cell lung
RPMI-8226 leukemia = system: RPMI-8226 leukemia
KM12 colon = system: KM12 colon
HCT-116 colon = system: HCT-116 colon
DLD-1 colon = system: DLD-1 colon
SK-MEL-2 melanoma = system: SK-MEL-2 melanoma
SK-MEL-5 melanoma = system: SK-MEL-5 melanoma
CAKI-1 renal = system: CAKI-1 renal
SNB-19 CNS = system: SNB-19 CNS
HOP-92 NSCLC = system: HOP-92 NSCLC
SK-MEL-28 melanoma = system: SK-MEL-28 melanoma
LXFL 529 NSCLC = system: LXFL 529 NSCLC
SN12C renal = system: SN12C renal
NCI-H226 lung = system: NCI-H226 lung
A549 NSCLC = system: A549 NSCLC
ACHN renal = system: ACHN renal
HT29 colon = system: HT29 colon
MALME-3M melanoma = system: MALME-3M melanoma
SR leukemia = system: SR leukemia
HCT-15 colon = system: HCT-15 colon
M14 melanoma = system: M14 melanoma
LOX IMVI melanoma = system: LOX IMVI melanoma
SNB-78 CNS = system: SNB-78 CNS
NCI-H522 lung = system: NCI-H522 lung
TK-10 renal = system: TK-10 renal
SF-268 CNS = system: SF-268 CNS
SF-295 CNS = system: SF-295 CNS
HOP-62 NSCLC = system: HOP-62 NSCLC
NCI-H23 lung = system: NCI-H23 lung
SNB-75 CNS = system: SNB-75 CNS
XF 498 CNS = system: XF 498 CNS
NCI-H460 lung = system: NCI-H460 lung
UACC-257 melanoma = system: UACC-257 melanoma
786-0 renal = system: 786-0 renal
U251 CNS = system: U251 CNS
SK-OV-3 ovarian = system: SK-OV-3 ovarian
HL-60(TB) leukemia = system: HL-60(TB) leukemia
HCC-2998 colon = system: HCC-2998 colon
UACC-62 melanoma = system: UACC-62 melanoma
OVCAR-8 ovarian = system: OVCAR-8 ovarian
KM20L2 colon = system: KM20L2 colon
CCRF-CEM leukemia = system: CCRF-CEM leukemia
SF-539 CNS = system: SF-539 CNS
K-562 leukemia = system: K-562 leukemia
IGROV1 ovarian = system: IGROV1 ovarian
UO-31 renal = system: UO-31 renal
M19-MEL melanoma = system: M19-MEL melanoma
OVCAR-3 ovarian = system: OVCAR-3 ovarian
COLO 205 colon = system: COLO 205 colon
EKVX NSCLC = system: EKVX NSCLC
DMS 273 small cell lung = system: DMS 273 small cell lung
T-47D breast = system: T-47D breast
BT-549 breast = system: BT-549 breast
MDA-MB-435 = system: MDA-MB-435
HS 578T breast = system: HS 578T breast
MDA-MB-231 breast = system: MDA-MB-231 breast
DU-145 prostate = system: DU-145 prostate
PC-3 prostate = system: PC-3 prostate
MDA-N = system: MDA-N

CC1=C(C#N)C(=O)CC(c2ccc(Cl)cc2)N(C)N1 (stereo unspecified)
TGI (RXF 393 renal): > 100 µM
TGI (MOLT-4 leukemia): > 100 µM
TGI (OVCAR-5 ovarian): > 100 µM
TGI (HOP-18 NSCLC): > 100 µM
TGI (OVCAR-4 ovarian): > 100 µM
TGI (SW-620 colon): > 100 µM
TGI (A498 renal): > 100 µM
TGI (DMS 114 small cell lung): > 100 µM
TGI (RPMI-8226 leukemia): > 100 µM
TGI (KM12 colon): > 100 µM
TGI (HCT-116 colon): > 100 µM
TGI (DLD-1 colon): > 100000 nM
TGI (SK-MEL-2 melanoma): > 100 µM
TGI (SK-MEL-5 melanoma): > 100 µM
TGI (CAKI-1 renal): > 100 µM
TGI (SNB-19 CNS): > 100 µM
TGI (HOP-92 NSCLC): > 100 µM
TGI (SK-MEL-28 melanoma): > 100 µM
TGI (LXFL 529 NSCLC): > 100 µM
TGI (SN12C renal): > 100 µM
TGI (NCI-H226 lung): > 100 µM
TGI (A549 NSCLC): > 100 µM
TGI (ACHN renal): > 100 µM
TGI (HT29 colon): > 100 µM
TGI (MALME-3M melanoma): > 100 µM
TGI (SR leukemia): > 100 µM
TGI (HCT-15 colon): > 100 µM
TGI (M14 melanoma): > 100 µM
TGI (LOX IMVI melanoma): > 100 µM
TGI (SNB-78 CNS): > 100 µM
TGI (NCI-H522 lung): > 100 µM
TGI (TK-10 renal): > 100 µM
TGI (SF-268 CNS): > 100 µM
TGI (SF-295 CNS): > 100 µM
TGI (HOP-62 NSCLC): > 100 µM
TGI (NCI-H23 lung): > 100 µM
TGI (SNB-75 CNS): > 100 µM
TGI (XF 498 CNS): > 100 µM
TGI (NCI-H460 lung): > 100 µM
TGI (UACC-257 melanoma): > 100 µM
TGI (786-0 renal): > 100 µM
TGI (U251 CNS): > 100 µM
TGI (SK-OV-3 ovarian): > 100 µM
TGI (HL-60(TB) leukemia): > 100 µM
TGI (HCC-2998 colon): > 100 µM

O=C(Cc1nc2c3c(ccc2[nH]c1=O)C(=O)c1ccccc1C3=O)C(=O)Nc1ccccc1[N+](=O)[O-]
TGI (MOLT-4 leukemia): 23.2 µM
TGI (OVCAR-5 ovarian): 41.1 µM
TGI (OVCAR-4 ovarian): 32.4 µM
TGI (UACC-62 melanoma): 59 µM
TGI (SW-620 colon): 28.6 µM
TGI (OVCAR-8 ovarian): 39600 nM
TGI (RPMI-8226 leukemia): 41.1 µM
TGI (KM12 colon): 43 µM
TGI (HCT-116 colon): 65.4 µM
TGI (SK-MEL-2 melanoma): 45.4 µM
TGI (SK-MEL-5 melanoma): 37.3 µM
TGI (KM20L2 colon): 39.6 µM
TGI (CAKI-1 renal): 62.9 µM
TGI (SNB-19 CNS): 32.9 µM
TGI (HOP-92 NSCLC): 38.5 µM
TGI (SK-MEL-28 melanoma): 30.3 µM
TGI (LXFL 529 NSCLC): 18 µM
TGI (CCRF-CEM leukemia): 11600 nM
TGI (SF-539 CNS): 34600 nM
TGI (NCI-H226 lung): 40.5 µM
TGI (A549 NSCLC): > 100 µM
TGI (K-562 leukemia): 37 µM
TGI (ACHN renal): 33.9 µM
TGI (HT29 colon): 41.7 µM
TGI (MALME-3M melanoma): 36.6 µM
TGI (SR leukemia): 51.1 µM
TGI (IGROV1 ovarian): 65400 nM
TGI (UO-31 renal): > 100000 nM
TGI (M14 melanoma): 34 µM
TGI (LOX IMVI melanoma): 44.8 µM
TGI (SNB-78 CNS): 16.5 µM
TGI (NCI-H522 lung): 18 µM
TGI (TK-10 renal): 44.8 µM
TGI (SF-268 CNS): 31.5 µM
TGI (HOP-62 NSCLC): 39.2 µM
TGI (NCI-H23 lung): 35.4 µM
TGI (M19-MEL melanoma): 79.5 µM
TGI (OVCAR-3 ovarian): 25.6 µM
TGI (XF 498 CNS): 43.1 µM
TGI (NCI-H460 lung): 97.6 µM
TGI (UACC-257 melanoma): 37 µM
TGI (786-0 renal): 34.4 µM
TGI (U251 CNS): 32 µM
TGI (SK-OV-3 ovarian): > 100 µM
TGI (HL-60(TB) leukemia): 43.7 µM
TGI (COLO 205 colon): 33.5 µM
TGI (EKVX NSCLC): 36.7 µM
TGI (HCC-2998 colon): 36.8 µM

COc1cc2c(cc1OC)[C@H]1CN3CCC[C@H]3C=C1c1ccc(OC)c(O)c1-2
TGI (RXF 393 renal): 0.0437 µM
TGI (OVCAR-5 ovarian): 0.00431 µM and 0.0108 µM
TGI (HOP-18 NSCLC): 0.000181 µM
TGI (OVCAR-4 ovarian): 0.00362 µM
TGI (UACC-62 melanoma): 0.000267 µM
TGI (DMS 273 small cell lung): 0.139 nM
TGI (OVCAR-8 ovarian): 1.5 nM and 12.3 nM
TGI (DMS 114 small cell lung): 0.00014 µM
TGI (RPMI-8226 leukemia): 0.0012 µM
TGI (KM12 colon): 0.00183 µM
TGI (HCT-116 colon): 0.00302 µM
TGI (DLD-1 colon): 10.9 nM and 12.3 nM
TGI (SK-MEL-2 melanoma): 0.000975 µM
TGI (SK-MEL-5 melanoma): 0.00133 µM
TGI (CAKI-1 renal): 0.000133 µM
TGI (HOP-92 NSCLC): 0.000382 µM
TGI (T-47D breast): 132 nM
TGI (CCRF-CEM leukemia): 37.6 nM and 350 nM
TGI (SF-539 CNS): 5.8 nM and 35.8 nM
TGI (NCI-H226 lung): 0.0102 µM
TGI (BT-549 breast): 206 nM
TGI (ACHN renal): 0.0154 µM
TGI (MDA-MB-435): 26.9 nM
TGI (HT29 colon): 0.0218 µM and 0.0484 µM
TGI (MALME-3M melanoma): 0.00179 µM
TGI (HS 578T breast): 6.77 nM
TGI (SR leukemia): 0.00437 µM
TGI (IGROV1 ovarian): 3.23 nM and 13.7 nM
TGI (UO-31 renal): 3.24 nM
TGI (M14 melanoma): 0.000985 µM
TGI (LOX IMVI melanoma): 0.000604 µM
TGI (SNB-78 CNS): 0.00049 µM
TGI (NCI-H522 lung): 0.000856 µM
TGI (TK-10 renal): 0.114 µM
TGI (SF-295 CNS): 0.00039 µM
TGI (NCI-H23 lung): 0.00184 µM
TGI (MDA-MB-231 breast): 52.3 nM
TGI (M19-MEL melanoma): < 0.0001 µM
TGI (DU-145 prostate): 162 nM
TGI (PC-3 prostate): 26.9 nM
TGI (NCI-H460 lung): 0.00509 µM and 0.0106 µM
TGI (UACC-257 melanoma): 0.00835 µM
TGI (786-0 renal): 0.0169 µM
TGI (MDA-N): 112 nM
TGI (U251 CNS): 1.25 µM
TGI (SK-OV-3 ovarian): 0.000342 µM
TGI (COLO 205 colon): 0.00119 µM
TGI (HCC-2998 colon): 0.0149 µM and 0.0736 µM

N#CC1=C(c2ccccc2)NNC(c2ccc(Cl)cc2)CC1=O (stereo unspecified)
TGI (RXF 393 renal): > 100 µM
TGI (MOLT-4 leukemia): > 100 µM
TGI (OVCAR-5 ovarian): > 100 µM
TGI (HOP-18 NSCLC): > 100 µM
TGI (OVCAR-4 ovarian): > 100 µM
TGI (SW-620 colon): > 100 µM
TGI (A498 renal): > 100 µM
TGI (DMS 114 small cell lung): > 100 µM
TGI (RPMI-8226 leukemia): > 100 µM
TGI (KM12 colon): > 100 µM
TGI (HCT-116 colon): > 100 µM
TGI (DLD-1 colon): > 100000 nM
TGI (SK-MEL-2 melanoma): 90.4 µM
TGI (SK-MEL-5 melanoma): 68.2 µM
TGI (KM20L2 colon): 61.2 µM
TGI (CAKI-1 renal): > 100 µM
TGI (SNB-19 CNS): > 100 µM
TGI (HOP-92 NSCLC): > 100 µM
TGI (SK-MEL-28 melanoma): > 100 µM
TGI (LXFL 529 NSCLC): > 100 µM
TGI (SN12C renal): > 100 µM
TGI (NCI-H226 lung): 8.26 µM
TGI (A549 NSCLC): > 100 µM
TGI (ACHN renal): > 100 µM
TGI (HT29 colon): > 100 µM
TGI (MALME-3M melanoma): > 100 µM
TGI (SR leukemia): > 100 µM
TGI (HCT-15 colon): > 100 µM
TGI (M14 melanoma): 68.9 µM
TGI (LOX IMVI melanoma): > 100 µM
TGI (SNB-78 CNS): > 100 µM
TGI (NCI-H522 lung): 51.7 µM
TGI (TK-10 renal): > 100 µM
TGI (SF-268 CNS): > 100 µM
TGI (SF-295 CNS): 73.1 µM
TGI (HOP-62 NSCLC): 73.8 µM
TGI (NCI-H23 lung): > 100 µM
TGI (SNB-75 CNS): 41.7 µM
TGI (XF 498 CNS): 77.1 µM
TGI (NCI-H460 lung): > 100 µM
TGI (UACC-257 melanoma): > 100 µM
TGI (U251 CNS): > 100 µM
TGI (SK-OV-3 ovarian): > 100 µM
TGI (HL-60(TB) leukemia): > 100 µM
TGI (HCC-2998 colon): > 100 µM
